Measured values reported in patent publication US20260376293A1, “METHODS FOR STUDYING GPR158 PHARMACOLOGY AND IDENTIFICATION OF ITS LIGANDS” (UNIVERSITY OF FLORIDA RESEARCH FOUNDATION, INCORPORATED, priority 2022, published 2026).

How the values were obtained:
GPR158 = target: T1, GPR158 (Homo sapiens, UniProt Q5T848); assay: Whole cell radioligand binding assay; design: expressed in transfected cells; host or cells: HEK293 (HEK293FT in the BRET methods); details: HEK293 cells, across concentrations
T1 sequence (Q5T848 24-1215): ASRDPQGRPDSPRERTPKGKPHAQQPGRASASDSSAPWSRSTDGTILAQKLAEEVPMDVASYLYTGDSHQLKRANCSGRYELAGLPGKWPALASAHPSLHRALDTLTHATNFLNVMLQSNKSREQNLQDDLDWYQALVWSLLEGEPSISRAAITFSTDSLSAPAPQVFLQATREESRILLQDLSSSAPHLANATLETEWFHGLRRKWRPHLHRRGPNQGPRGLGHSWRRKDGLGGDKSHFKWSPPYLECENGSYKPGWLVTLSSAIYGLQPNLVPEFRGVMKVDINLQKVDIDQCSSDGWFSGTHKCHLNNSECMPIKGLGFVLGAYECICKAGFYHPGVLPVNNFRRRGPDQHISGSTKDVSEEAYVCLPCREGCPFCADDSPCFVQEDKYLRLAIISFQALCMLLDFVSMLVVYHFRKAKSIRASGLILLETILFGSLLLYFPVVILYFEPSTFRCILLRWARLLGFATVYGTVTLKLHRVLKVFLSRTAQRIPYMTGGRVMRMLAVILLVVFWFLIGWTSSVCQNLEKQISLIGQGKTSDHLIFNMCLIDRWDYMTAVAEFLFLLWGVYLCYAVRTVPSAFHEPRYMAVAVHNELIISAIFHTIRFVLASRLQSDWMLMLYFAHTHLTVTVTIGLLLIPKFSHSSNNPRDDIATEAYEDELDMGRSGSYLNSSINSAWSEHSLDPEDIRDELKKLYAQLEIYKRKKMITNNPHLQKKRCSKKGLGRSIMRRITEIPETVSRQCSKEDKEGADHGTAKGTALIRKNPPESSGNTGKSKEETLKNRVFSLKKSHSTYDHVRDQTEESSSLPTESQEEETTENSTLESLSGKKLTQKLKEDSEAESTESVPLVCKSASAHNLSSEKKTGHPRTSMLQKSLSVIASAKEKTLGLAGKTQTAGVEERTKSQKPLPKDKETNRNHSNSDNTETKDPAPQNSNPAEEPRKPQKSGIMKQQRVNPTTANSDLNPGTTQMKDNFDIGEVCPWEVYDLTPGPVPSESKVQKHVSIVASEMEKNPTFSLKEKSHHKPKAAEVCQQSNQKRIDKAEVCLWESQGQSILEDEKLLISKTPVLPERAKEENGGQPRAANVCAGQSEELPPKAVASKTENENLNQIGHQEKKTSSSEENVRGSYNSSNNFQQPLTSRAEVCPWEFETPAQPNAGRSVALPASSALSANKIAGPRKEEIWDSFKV
Experimental: FIG. 7. Direct binding of glycine in whole cell radiolabeled assay a) Schematics of the radioligand binding assay. b) Quantification of ^3H-glycine binding to cells. Count Per minute (CPM) are measured and plotted. Data shown mean of 3 independent experiments error bars are s.e.m. values, n=3, *p=0.0403, ***p<0.001, ****p<0.0001 (two-way ANOVA) Columns with no fill (Control cells), columns with angled-line fill (GPR158 cells).
Next, the inventors performed radioligand binding assays examining binding of [^3H]-labeled glycine to HEK293 cells expressing GPR158 (FIG. 7A). […] The inventors have then isolated cellular membranes and conducted classical radioligand titration experiments (FIG. 9D). The inventors detected saturable [^3H]-glycine binding to membranes containing GPR158 is substantial excess over linear non-specific binding to membranes devoid of GPR158 (FIG. 9E). Scatchard analysis (FIG. 9F) estimated Kd of GPR158 for glycine to be ~3 μM. The inventors further performed binding competition experiments directly comparing the ability of glycine and taurine to displace [^3H]-labeled glycine bound to GPR158 (FIG. 8).
Whole cell binding was performed using cDNA of GPR158-venus or each GPR158-venus mutant or empty pcDNA3.1+ for ctrl cells. […] Finally radioactivity was measured using the liquid scintillation analyzer Tri-Carb 4910 TR.

GlyRs = details: cited from earlier work

binding to GPR158-expressing cells (GPR158) | SMILES | affinity of GlyRs for glycine relative to mGlyR (GlyRs)
significant binding | NCC(=O)O [^3H-glycine, [^3H]-glycine] | 
 | NCC(=O)O [glycine] | an order of magnitude lower affinity
